Reference: patent US20230312473A1, “PROCESS FOR THE PREPARATION OF BIHETEROARYL COMPOUNDS AND CRYSTAL FORMS THEREOF” (Genentech, Inc., priority 2020, published 2023)

Experiments:
[1] = Crystallization study: crystalline form by XRPD; type: physicochemical
Procedure: In Example 14, X-ray powder diffraction (“XRPD”), a sample of compound 1 was prepared in an open quartz glass capillary with a diameter of 0.9 mm (and was not further processed, such as by grinding). A Stoe high-low temperature attachment (working range −50 to 300) with a NiCr/Ni thermocouple for temperature measurement controlled the respective temperature conditions. The measurements were carried out with a rotating capillary and the following parameters. STOE STADI diffractometer; MYTHEN 1K detector; CuKα, 1.5406 Å radiation; Ge monochromator; 40 kV, 40 mA; moving scan; 1800 seconds per step; 2θ=3-42 degrees; 5° C./min ramp rate; and 5° C. temperature step.
Compound 1 was prepared from crude compound 1 according to the following procedure. Crude compound 1 (46 kg) was dissolved in 1080 kg of isopropyl acetate at 88.6° C. After cooling to 71° C., the solution was passed through a pre-washed and pre-heated charcoal filter. The charcoal filter was rinsed with 400 kg of hot isopropyl acetate. Under reduced pressure, the volume of the combined filtrates was concentrated to a total of 760 to 780 L. The resulting suspension was heated to 88° C. Isopropyl acetate was then added in portions (85 kg in total) to achieve complete dissolution at 88° C. The solution was cooled to 69° C. leading to a suspension which was then cooled to 0° C. within 190 minutes, and stirred at this temperature for 900 minutes. The product was isolated by filtration and rinsed with portions of cold isopropyl acetate (400 kg in total). After drying at […]/10 mbar for about 40 hours, 38.5 kg (approx. 84% of theoretical yield) of crystallized compound 1 was obtained.
Crystalline compound 1 was evaluated. Crystallization study procedures were done based on the solubility of compound 1 in the solvent under evaluation as follows.
The results are presented below in Table 10 where: * refers to compound 1 prepared as described above; and ** refers to compound 1 prepared as described above and further incubated at 100% relative humidity at 22° C. for 17 days.

[2] = Solubility of compound I free base in MIBK; type: physicochemical
Procedure: In one aspect, the dissolution solvent is MIBK. The solubility of compound I free base in MIBK is about 8.2 wt. % at 90° C., about 5.2 wt. % at 80° C., about 4 wt. % at 70° C., about 3 wt. % at 60° C., about 2 wt. % at 50° C., about 1.4 wt. % at 40° C., about 1 wt. % at 30° C., about 0.9 wt. % at 20° C., about 0.6 wt. % at 10° C., about 0.4 wt. % at 0° C., and about 0.2 wt. % at −10° C. In some aspects, a 6.5 wt. % to 7.5 wt. % solution of compound I free base in MIBK is formed at 90° C. Following filtration at about 90° C., the solution may be cooled to about 75° C. following by addition of seed crystals to form a slurry, and optionally held (aged) at that temperature for a period of time, such as from about 0.5 to about 2 hours. The slurry may then be cooled, such as for instance to about −10° C., and aged at that temperature for a period of time, such as from about 2 to about 10 hours. Solid crystallized compound I may be isolated, and washed with chilled MIBK (e.g., at about 0° C. to about 10° C.) and then with chilled alcohol, such as ethanol (e.g., at about 0° C. to about 10° C.). Crystalline compound I may be dried at a temperature of from about 40° C. to about 70° C. (e.g., 60° C.) under vacuum (e.g., about 20 mbar or less) until a constant weight is achieved.

For `Nc1ncc(-c2cc(N3C[C@@H]4C[C@H]3CO4)nc(N3CCC(F)(F)C3)n2)cc1OC(F)F` [Compound 1, 5-(6-((1S,4S)-2-oxa-5-azabicyclo[2.2.1]heptan-5-yl)-2-(3,3-difluoropyrrolidin-1-yl)pyrimidin-4-yl)-3-(difluoromethoxy)pyridin-2-amine], the “Crystalline Form” value ([1]; * compound 1 as prepared (crystallized from isopropyl acetate)) was “Form A”, the “Crystalline Form” value ([1]; ** as prepared and further incubated at 100% relative humidity at 22° C. for 17 days) was “Form A” and the “Crystalline Form” value ([1]; crystallization study solvent: 2-methyl THF) was “Form A”. For the same compound, the “Crystalline Form” value ([1]; crystallization study solvent: 5% water in ethanol) was “Form A”, the “Crystalline Form” value ([1]; crystallization study solvent: 5% water in isopropanol) was “Form A” and the “Crystalline Form” value ([1]; crystallization study solvent: 5% water in methanol) was “Form A”. The “Crystalline Form” value ([1]; crystallization study solvent: 5% water in propanol) was “Form A”, the “Crystalline Form” value ([1]; crystallization study solvent: 15% water in THF) was “Form A” and the “Crystalline Form” value ([1]; crystallization study solvent: 15% water in acetone) was “Form A”. The “Crystalline Form” value ([1]; crystallization study solvent: 15% water in ethanol) was “Form A”, the “Crystalline Form” value ([1]; crystallization study solvent: 15% water in isopropanol) was “Form A” and the “Crystalline Form” value ([1]; crystallization study solvent: 15% water in methanol) was “Form A”. The “Crystalline Form” value ([1]; crystallization study solvent: 15% water in propanol) was “Form A”, the “Crystalline Form” value ([1]; crystallization study solvent: 20% water in acetonitrile) was “Form A” and the “Crystalline Form” value ([1]; crystallization study solvent: 50% water in acetonitrile) was “Form A”. The “Crystalline Form” value ([1]; crystallization study solvent: 50% water in ethanol) was “Form A”, the “Crystalline Form” value ([1]; crystallization study solvent: 50% water in isopropanol) was “Form A” and the “Crystalline Form” value ([1]; crystallization study solvent: 50% water in methanol) was “Form A”. For the same compound, the “Crystalline Form” value ([1]; crystallization study solvent: 50% water in propanol) was “Form A”, the “Crystalline Form” value ([1]; crystallization study solvent: 80% water in acetonitrile) was “Form A” and the “Crystalline Form” value ([1]; crystallization study solvent: Acetic acid) was “Form A”. For the same compound, the “Crystalline Form” value ([1]; crystallization study solvent: Acetone) was “Form A”, the “Crystalline Form” value ([1]; crystallization study solvent: Acetonitrile) was “Form A” and the “Crystalline Form” value ([1]; crystallization study solvent: Butanol) was “Form A”. For the same compound, the “Crystalline Form” value ([1]; crystallization study solvent: Chloroform) was “Form A”, the “Crystalline Form” value ([1]; crystallization study solvent: DMA) was “Form A” and the “Crystalline Form” value ([1]; crystallization study solvent: DMF) was “Form A”. For the same compound, the “Crystalline Form” value ([1]; crystallization study solvent: DMSO) was “Form A”, the “Crystalline Form” value ([1]; crystallization study solvent: Dichloromethane) was “Form A” and the “Crystalline Form” value ([1]; crystallization study solvent: Diisopropylamine) was “Form A”. The “Crystalline Form” value ([1]; crystallization study solvent: Dimethyl carbonate) was “Form A”, the “Crystalline Form” value ([1]; crystallization study solvent: Dioxane) was “Form A” and the “Crystalline Form” value ([1]; crystallization study solvent: Ethanol) was “Form A”. The “Crystalline Form” value ([1]; crystallization study solvent: Ethyl acetate) was “Form A”, the “Crystalline Form” value ([1]; crystallization study solvent: Isopropanol) was “Form A” and the “Crystalline Form” value ([1]; crystallization study solvent: Isopropyl acetate) was “Form A”. For the same compound, the “Crystalline Form” value ([1]; crystallization study solvent: MEK) was “Form A”, the “Crystalline Form” value ([1]; crystallization study solvent: MIBK) was “Form A” and the “Crystalline Form” value ([1]; crystallization study solvent: MTBE) was “Form A”. For the same compound, the “Crystalline Form” value ([1]; crystallization study solvent: Methanol) was “Form A”, the “Crystalline Form” value ([1]; crystallization study solvent: NMP) was “Form A” and the “Crystalline Form” value ([1]; crystallization study solvent: Nitromethane) was “Form A”. The “Crystalline Form” value ([1]; crystallization study solvent: Propanol) was “Form A”, the “Crystalline Form” value ([1]; crystallization study solvent: THF) was “Form A” and the “Crystalline Form” value ([1]; crystallization study solvent: Toluene) was “Form A”. For the same compound, the “Crystalline Form” value ([1]; crystallization study solvent: Water) was “Form A”, the “Crystalline Form” value ([1]; crystallization study solvent: i-Butanol) was “Form A” and the “Crystalline Form” value ([1]; crystallization study solvent: n-Heptane) was “Form A”. The “Crystalline Form” value ([1]; crystallization study solvent: s-butanol) was “Form A”, the “solubility in MIBK” value ([2]; 0° C.) was “about 0.4 wt. %” and the “solubility in MIBK” value ([2]; 10° C.) was “about 0.6 wt. %”. For the same compound, the “solubility in MIBK” value ([2]; 20° C.) was “about 0.9 wt. %”, the “solubility in MIBK” value ([2]; 30° C.) was “about 1 wt. %” and the “solubility in MIBK” value ([2]; 40° C.) was “about 1.4 wt. %”. The “solubility in MIBK” value ([2]; 50° C.) was “about 2 wt. %”, the “solubility in MIBK” value ([2]; 60° C.) was “about 3 wt. %” and the “solubility in MIBK” value ([2]; 70° C.) was “about 4 wt. %”. The “solubility in MIBK” value ([2]; 80° C.) was “about 5.2 wt. %”, the “solubility in MIBK” value ([2]; 90° C.) was “about 8.2 wt. %” and the “solubility in MIBK” value ([2]; −10° C.) was “about 0.2 wt. %”.
